Results from patent US12083102B2, “Method for treating inflammatory disorders” (DIMERIX BIOSCIENCE PTY LTD, priority 2011, dated 2024).
“Also recorded” adds a separate entry of the source.

How the values were obtained:
[1] = tested on: diabetic nephropathy; conditions: patients; Lewis (1993); cited from earlier work
[2] = tested on: mouse models of multiple sclerosis, renal ischemia-reperfusion injury, ureter obstruction, diabetic nephropathy; rat model of arthritis; conditions: Tesch (2008); cited from earlier work
[3] = target: T1, AT1R-Rluc8 (Homo sapiens, UniProt P30556); format: cell-based; conditions: HEK293FT cells; antagonist 10 μM; 100 nM AngII; FIG. 5 middle
T1 construct: expressed in transfected cells; host or cells: HEK293FT
T1 sequence (P30556 1-359): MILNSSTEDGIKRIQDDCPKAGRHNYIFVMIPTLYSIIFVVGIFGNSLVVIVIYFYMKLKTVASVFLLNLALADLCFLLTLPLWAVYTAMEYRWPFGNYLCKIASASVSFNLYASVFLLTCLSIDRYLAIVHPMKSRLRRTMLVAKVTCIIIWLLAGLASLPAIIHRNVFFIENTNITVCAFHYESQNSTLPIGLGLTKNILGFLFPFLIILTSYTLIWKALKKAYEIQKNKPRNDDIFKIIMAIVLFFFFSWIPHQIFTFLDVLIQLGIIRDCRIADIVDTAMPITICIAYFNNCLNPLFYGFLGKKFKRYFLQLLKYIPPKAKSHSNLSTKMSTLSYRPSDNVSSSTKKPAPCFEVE

[4] = target: T2, AT1R-Rluc8 and the untagged CCR2 (Homo sapiens, UniProt P30556+P41597); format: cell-based; conditions: HEK293FT cells, FIG. 5 bottom; for MCP-1-induced BRET, AT1R-Rluc8, β-arrestin2-Venus and untagged CCR2: 100 nM MCP-1
T2 construct: expressed in transfected cells; host or cells: HEK293FT
Source text: (§3) Data represent mean±SEM of three independent experiments performed in triplicate.
HEK293FT cells were transiently transfected with plasmids coding for β-arrestin2-Venus and the indicated receptors: CCR2-Rluc8 (top panel), AT1R-Rluc8 (middle panel) or AT1R-Rluc8 and the untagged CCR2 (bottom panel).

[5] = target: T1, AT1R-Rluc8; assay: Inositol phosphate (IP1) production (Example 4, top panel); format: cell-based; conditions: HEK293FT cells; antagonist 10 μM; 100 nM AngII; no CCR2; FIG. 6 top
[6] = target: T3, AT1R-Rluc8 and CCR2 (Homo sapiens, UniProt P30556+P41597); assay: Inositol phosphate (IP1) production (Example 4, bottom panel); format: cell-based; conditions: HEK293FT cells, FIG. 6 bottom; for AngII-induced IP1 production, cells co-expressing AT1R-Rluc8 and CCR2 / MCP-1-induced IP1 production, cells co-expressing AT1R-Rluc8 and CCR2: antagonist 10 μM; for AngII-induced IP1 production, cells co-expressing AT1R-Rluc8 and CCR2: 100 nM AngII; for MCP-1-induced IP1 production, cells co-expressing AT1R-Rluc8 and CCR2: 100 nM MCP-1
T3 construct: expressed in transfected cells; host or cells: HEK293FT
Source text: as §3

[7] = target: CCR2-Rluc8 and HA-tagged AT1R (Homo sapiens, UniProt P30556+P41597); conditions: HEK293FT cells, FIG. 7 bottom; for MCP-1-induced BRET, CCR2-Rluc8, β-arrestin2-Venus and HA-tagged AT1R: 100 nM MCP-1
[8] = tested on: monocytes; conditions: Yokochi (2001); cited from earlier work
[9] = tested on: MCP-1; conditions: Yokochi (2001); Yamada (2004); cited from earlier work
[10] = target: T1, AT1R-Rluc8; assay: Inositol phosphate (IP1) production (Example 6, top panel); format: cell-based; conditions: HEK293FT cells; antagonist 10 μM; 100 nM AngII; no CCR2; FIG. 8 top
Procedure: (§1) Data are shown as induced IP1 (arbitrary units).
(§2) The cells were then lysed by adding the HTRF® assay reagents, the Terbium Cryptate-labeled anti-IP1 antibody, and the d2-labeled IP1 analog, previously diluted in the lysis buffer containing 1% Triton X-100. The assay was incubated for 1 hour at room temperature, and Terbium Cryptate fluorescence and the time resolved FRET signal were measured 50 μs after excitation at 340, 620, and 665 nm, respectively, using the EnVision 2102 multilabel plate reader (PerkinElmer). Data are shown as induced IP1 (arbitrary units). The IP-One Tb kit is a competition assay and so induction of IP1 results in a decrease in absolute assay signal. Therefore, the induced IP1 (arbitrary units) is generated by subtracting the ligand-induced assay signal from the basal assay signal.

[11] = target: T3, AT1R-Rluc8 and CCR2; assay: Inositol phosphate (IP1) production (Example 6, bottom panel); format: cell-based; conditions: HEK293FT cells, FIG. 8 bottom
Procedure: as §1, §2

Chain of CCR2-Rluc8 and HA-tagged AT1R (P41597 whole entry, one chain of several): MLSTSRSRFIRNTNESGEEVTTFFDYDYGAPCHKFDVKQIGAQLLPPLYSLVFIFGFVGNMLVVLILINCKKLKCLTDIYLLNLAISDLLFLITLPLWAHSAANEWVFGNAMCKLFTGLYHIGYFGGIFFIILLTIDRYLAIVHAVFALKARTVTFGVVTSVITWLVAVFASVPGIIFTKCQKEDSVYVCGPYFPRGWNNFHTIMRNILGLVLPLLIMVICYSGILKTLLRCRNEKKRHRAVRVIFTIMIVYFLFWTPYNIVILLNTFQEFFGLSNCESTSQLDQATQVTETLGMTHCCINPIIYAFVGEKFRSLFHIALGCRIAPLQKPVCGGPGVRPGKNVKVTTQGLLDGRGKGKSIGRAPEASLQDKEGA
T2 sequence (P41597 whole entry, one chain of several): as above
T3 sequence (P41597 whole entry, one chain of several): as above

C[C@H](CS)C(=O)N1CCC[C@H]1C(=O)O [captopril]
progression of diabetic nephropathy [1]: did not halt the progression of diabetic nephropathy in the vast majority of patients

CCO[C@H]1CN(C2CCC(O)(c3ccc4c(c3)OCO4)CC2)C[C@@H]1NC(=O)CNC(=O)c1cccc(C(F)(F)F)c1 (stereo partly drawn) [INCB3344]
inflammation in mouse models of multiple sclerosis, renal ischemia-reperfusion injury, ureter obstruction, diabetic nephropathy and a rat model of arthritis [2]: suppress inflammation

CCCCC1=NC2(CCCC2)C(=O)N1Cc1ccc(-c2ccccc2-c2nn[nH]n2)cc1 [Irbesartan, 2-butyl-3-({4-[2-(2H-1,2,3,4-tetrazol-5-yl)phenyl]phenyl}methyl)-1,3-diazaspiro[4.4]non-1-en-4-one]
AngII-induced BRET response, AT1R-Rluc8 and β-arrestin2-Venus [3]: substantially blocked | AngII-induced BRET, AT1R-Rluc8, β-arrestin2-Venus and untagged CCR2 ([4]; antagonist 10 μM, 100 nM AngII): substantially block | MCP-1-induced BRET, AT1R-Rluc8, β-arrestin2-Venus and untagged CCR2 ([4]; antagonist 10 μM): not the MCP-1-induced BRET | AngII-induced IP1 production, cells expressing AT1R-Rluc8 [5]: substantially abolished | AngII-induced IP1 production, cells co-expressing AT1R-Rluc8 and CCR2 [6]: substantially inhibiting | MCP-1-induced IP1 production, cells co-expressing AT1R-Rluc8 and CCR2 [6]: partially reduced | AngII-induced BRET, CCR2-Rluc8, β-arrestin2-Venus and HA-tagged AT1R ([7]; antagonist 10 μM, 100 nM AngII): partially blocked | MCP-1-induced BRET, CCR2-Rluc8, β-arrestin2-Venus and HA-tagged AT1R ([7]; antagonist 10 μM): not the MCP-1-promoted BRET signal

3-oxygermylpropionic acid polymer [Propagermanium]
in vitro chemotactic migration of monocytes by MCP-1 [8]: specifically inhibit; also recorded: inhibits | MCP-1 binding [9]: does not inhibit | inflammation in mouse models of multiple sclerosis, renal ischemia-reperfusion injury, ureter obstruction, diabetic nephropathy and a rat model of arthritis [2]: suppress inflammation

Cc1ccc2c(c1)C1(CCN(CCc3nc(-c4ccccc4)oc3C)CC1)OC(=O)N2 [RS504393]
AngII-induced BRET response, AT1R-Rluc8 and β-arrestin2-Venus [3]: not RS504393 substantially blocked | MCP-1-induced BRET, AT1R-Rluc8, β-arrestin2-Venus and untagged CCR2 ([4]; antagonist 10 μM): partially blocked | AngII-induced IP1 production, cells expressing AT1R-Rluc8 [5]: not RS504393, substantially abolished | AngII-induced IP1 production, cells co-expressing AT1R-Rluc8 and CCR2 [6]: little effect | MCP-1-induced IP1 production, cells co-expressing AT1R-Rluc8 and CCR2 [6]: substantially and selectively inhibited | AngII-induced IP1 production, cells expressing AT1R-Rluc8 [10]: not RS504393, abolished | AngII-induced IP1 production, cells co-expressing AT1R-Rluc8 and CCR2 ([11]; antagonist 10 μM, 100 nM AngII): little effect | MCP-1-induced IP1 response, cells co-expressing AT1R-Rluc8 and CCR2 ([11]; antagonist 10 μM, 100 nM MCP-1): substantially and selectively inhibited | inflammation in mouse models of multiple sclerosis, renal ischemia-reperfusion injury, ureter obstruction, diabetic nephropathy and a rat model of arthritis [2]: suppress inflammation | MCP-1-induced BRET, CCR2-Rluc8, β-arrestin2-Venus and HA-tagged AT1R ([7]; antagonist 10 μM): substantially inhibited | BRET response with combined treatment with MCP-1 and AngII, CCR2-Rluc8 and HA-tagged AT1R ([7]; antagonist(s) 10 μM, 100 nM MCP-1 and AngII): a substantial BRET signal remained

MCP-1: Monocyte chemotactic protein-1, also known as monocyte chemoattractant protein-1
agonist-induced BRET, AT1R-Rluc8, β-arrestin2-Venus and untagged CCR2 ([4]; 100 nM agonist): induced BRET increases to different degrees | agonist-stimulated IP1 response, cells co-expressing AT1R-Rluc8 and CCR2 ([6]; 100 nM agonist): seems to stimulate a partial IP1 response | agonist-stimulated IP1 response, cells co-expressing AT1R-Rluc8 and CCR2 ([11]; 100 nM agonist): seems to stimulate a partial IP1 response
